Measured values as given in article PMC5623949, “Exploiting the 2-Amino-1,3,4-thiadiazole Scaffold To Inhibit Trypanosoma brucei Pteridine Reductase in Support of Early-Stage Drug Discovery” (ACS Omega, 2017).
Where two headings read alike, the source gives them in different places.

How the values were obtained:
[1] = system: T. b. brucei Lister 427 bloodstream forms; assay: In vitro activity against T. brucei (HTS SYBR Green I growth inhibition assay); type: cell-based, Trypanosoma brucei brucei; settings: for inhibition at 50 µM / EC50: Trypanosoma brucei; for inhibition at 50 µM: standard deviation within ±10% of the value, read-out: % Inhibition T. brucei at 50 μM; for % Antiparasitic Activity Tb brucei at 50uM: Table S1, compounds I-X
[2] = target: T1, TbPTR1 (Trypanosoma brucei brucei, UniProt O76290); assay: TbPTR1 direct enzyme inhibition assay for compounds I-X (Table S1); type: biochemical; settings: for inhibition at 50 µM: 10 min, pH 6, 50 µM compound; for Ki: competitive inhibition mechanism assumed
T1 construct: made in house
T1 sequence (O76290 1-268): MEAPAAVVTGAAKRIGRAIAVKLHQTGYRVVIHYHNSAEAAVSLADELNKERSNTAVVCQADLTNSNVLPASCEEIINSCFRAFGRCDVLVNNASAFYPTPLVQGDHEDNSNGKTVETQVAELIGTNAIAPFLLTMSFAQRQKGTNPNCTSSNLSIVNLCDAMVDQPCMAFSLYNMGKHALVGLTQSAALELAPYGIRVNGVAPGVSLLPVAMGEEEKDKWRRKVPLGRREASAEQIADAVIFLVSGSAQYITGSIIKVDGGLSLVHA
Method: (b) PTR1 Enzyme inhibition. Compounds ICX were tested following the direct assay. The samples were incubated for
10 minutes at 30 °C, in buffer containing 50 mM Na citrate pH 3.7, TbPTR1, BH2 20 μM. (Dawson et al. Mol.
Microbiol. 2006, 61 (6), 1457–1468). Reaction start with NADPH. Compound concentrations depend on solubility and
ranged between 10C300 μM. Ki was calculated assuming a competitive inhibition mechanism.

[3] = system: mammalian cells; assay: Toxicity against mammalian cells (Table S1); type: cell-based; settings: read-out: IC50 vs mam.cells
[4] = target: T1, TbPTR1; assay: biochemical; settings: for inhibition at 50 µM: 50 μM compound, read-out: % Inhibition TbPTR1 at 50 μM; for IC50: dose-response 0.001-100 μM
[5] = system: T. b. brucei Lister 427 bloodstream forms; assay: T. brucei resazurin assay for MTX potentiation and folic acid supplementation; type: cell-based, Trypanosoma brucei brucei; settings: for EC50: Trypanosoma brucei
Method: T. b. brucei Lister 427 bloodstream forms were grown at 37 °C and 5% CO2 in a complete HMI-9 medium, supplemented with 10% FCS and 100 UI/mL of penicillin/streptomycin. The cultures were diluted until a cell density of 2 × 10^6/mL was reached. The efficacy of compounds against T. brucei bloodstream forms was evaluated using a modified resazurin-based assay previously described.[46] The compounds were prepared from a stock solution in 10 mM DMSO and diluted in HMI-9 (supplemented or not with 1 mM folic acid, Sigma-Aldrich) to 40 μM work solution (0.4% DMSO, with the DMSO limit in the assay being 0.4%). […] The 40 μM work solution was then used to perform serial dilutions (1:2) in a 96-well plate. Upon compound addition to the test plate, the mid-log bloodstream forms were added (100 μL) in complete HMI-9 medium (supplemented or not with 1 mM folic acid) at a final cell density of 1 × 10^4/mL in a final well volume of 200 μL with a maximum DMSO concentration of 0.2%. Following incubation for 72 h at 37 °C and 5% CO2, 20 μL of 0.5 mM resazurin solution was added, and the plates were incubated further for 4 h under the same conditions. Fluorescence was measured at 540 and 620 nm excitation and emission wavelengths, respectively, using a Synergy 2 multi-mode reader (BioTek). […] This approach requires the use of both compounds at their EC50 potency in the combination, which is impossible to be detected for compound 4m having no intrinsic antiparasitic activity as a single agent at the tested concentrations. Folic acid (1 mM) was chosen on the basis of the following experiments. The stock solution of 10 mM folic acid dissolved in NaOH solution was used to perform a dose–response curve with folic acid alone to evaluate the maximum amount we could use without compromising parasite growth due to pH modification of the media. […] The IC50 values reported are the averages of the results obtained in at least two independent experiments. Pentamidine was used as the reference drug and internal control in all assays.

[6] = target: T2, hERG (Homo sapiens, UniProt Q12809); design: hERG inhibition liability assay
T2 construct: gene KCNH2

[7] = target: T3, CYP1A2 (Homo sapiens, UniProt P05177); assay: in vitro; design: cytochrome P450 isoform inhibition liability assay
T3 sequence (P05177 1-516): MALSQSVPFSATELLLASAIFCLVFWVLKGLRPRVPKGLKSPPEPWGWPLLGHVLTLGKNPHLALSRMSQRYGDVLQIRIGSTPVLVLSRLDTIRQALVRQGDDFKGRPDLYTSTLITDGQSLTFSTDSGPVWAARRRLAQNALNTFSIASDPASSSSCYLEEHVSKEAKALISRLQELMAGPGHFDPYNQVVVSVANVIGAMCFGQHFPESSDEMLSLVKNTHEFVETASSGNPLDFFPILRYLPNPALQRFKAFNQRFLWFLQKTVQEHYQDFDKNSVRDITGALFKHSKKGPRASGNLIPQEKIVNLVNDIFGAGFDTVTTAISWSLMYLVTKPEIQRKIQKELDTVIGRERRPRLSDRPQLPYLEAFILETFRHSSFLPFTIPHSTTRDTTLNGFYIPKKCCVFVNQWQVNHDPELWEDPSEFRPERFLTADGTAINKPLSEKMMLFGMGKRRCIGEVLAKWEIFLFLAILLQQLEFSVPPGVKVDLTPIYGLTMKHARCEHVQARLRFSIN

[8] = target: CYP2C19 (Homo sapiens, UniProt P33261); assay: in vitro; design: cytochrome P450 isoform inhibition liability assay
[9] = target: CYP2C9 (Homo sapiens, UniProt P11712); assay: in vitro; design: cytochrome P450 isoform inhibition liability assay
[10] = target: CYP2D6 (Homo sapiens, UniProt P10635); assay: in vitro; design: cytochrome P450 isoform inhibition liability assay
[11] = target: CYP3A4 (Homo sapiens, UniProt P08684); assay: in vitro; design: cytochrome P450 isoform inhibition liability assay
[12] = system: 786-O; assay: cells; design: mitochondrial toxicity in 786-O renal carcinoma cells; settings: Homo sapiens, 786-0; mitochondrial toxicity
[13] = in vitro; design: cytotoxicity, per cent cell growth of A549 cells; settings: human, a549 cells; read-out: % cell growth A549 at 10uM
[14] = in vitro; design: cytotoxicity, per cent cell growth of WI-38 fibroblasts; settings: human, wi-38 cells; read-out: % cell growth W1-38 at 10uM
[15] = system: T. b. brucei Lister 427 bloodstream forms; design: method as in PMID 27175479, PMID 27703008, PMID 18557814; settings: no folate supplementation; read-out: reported EC50 T. brucei with no folate supplementation; cited from earlier work

T2 sequence (Q12809 whole entry): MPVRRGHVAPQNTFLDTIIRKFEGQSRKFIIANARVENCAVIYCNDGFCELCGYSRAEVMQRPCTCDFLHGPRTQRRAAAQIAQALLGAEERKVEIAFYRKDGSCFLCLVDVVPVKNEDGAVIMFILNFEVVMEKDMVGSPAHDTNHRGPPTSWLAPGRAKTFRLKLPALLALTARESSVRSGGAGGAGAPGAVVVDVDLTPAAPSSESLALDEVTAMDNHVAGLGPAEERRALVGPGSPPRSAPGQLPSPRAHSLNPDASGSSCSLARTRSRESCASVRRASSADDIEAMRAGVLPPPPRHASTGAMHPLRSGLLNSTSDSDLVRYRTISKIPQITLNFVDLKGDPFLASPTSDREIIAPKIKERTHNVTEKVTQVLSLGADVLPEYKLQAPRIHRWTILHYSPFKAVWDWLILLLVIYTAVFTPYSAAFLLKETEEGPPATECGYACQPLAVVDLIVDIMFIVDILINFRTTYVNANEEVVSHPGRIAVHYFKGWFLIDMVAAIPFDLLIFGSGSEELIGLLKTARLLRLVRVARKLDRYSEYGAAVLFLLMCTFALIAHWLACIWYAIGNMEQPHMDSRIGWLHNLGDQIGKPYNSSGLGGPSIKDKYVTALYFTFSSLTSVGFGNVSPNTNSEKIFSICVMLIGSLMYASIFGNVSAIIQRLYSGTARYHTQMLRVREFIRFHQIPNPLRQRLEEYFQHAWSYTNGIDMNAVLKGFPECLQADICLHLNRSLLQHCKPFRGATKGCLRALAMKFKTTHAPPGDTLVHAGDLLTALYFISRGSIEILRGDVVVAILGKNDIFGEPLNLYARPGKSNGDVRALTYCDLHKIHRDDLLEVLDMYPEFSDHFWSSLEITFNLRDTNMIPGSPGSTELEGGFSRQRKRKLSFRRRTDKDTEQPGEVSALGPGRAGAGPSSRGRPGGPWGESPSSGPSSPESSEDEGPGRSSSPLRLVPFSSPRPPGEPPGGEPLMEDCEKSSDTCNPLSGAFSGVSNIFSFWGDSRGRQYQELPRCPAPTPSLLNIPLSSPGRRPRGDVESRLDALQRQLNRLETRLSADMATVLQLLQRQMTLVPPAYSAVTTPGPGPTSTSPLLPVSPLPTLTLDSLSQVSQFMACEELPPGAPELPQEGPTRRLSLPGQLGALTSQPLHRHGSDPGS
Chain of CYP2D6 (P10635 whole entry, canonical isoform): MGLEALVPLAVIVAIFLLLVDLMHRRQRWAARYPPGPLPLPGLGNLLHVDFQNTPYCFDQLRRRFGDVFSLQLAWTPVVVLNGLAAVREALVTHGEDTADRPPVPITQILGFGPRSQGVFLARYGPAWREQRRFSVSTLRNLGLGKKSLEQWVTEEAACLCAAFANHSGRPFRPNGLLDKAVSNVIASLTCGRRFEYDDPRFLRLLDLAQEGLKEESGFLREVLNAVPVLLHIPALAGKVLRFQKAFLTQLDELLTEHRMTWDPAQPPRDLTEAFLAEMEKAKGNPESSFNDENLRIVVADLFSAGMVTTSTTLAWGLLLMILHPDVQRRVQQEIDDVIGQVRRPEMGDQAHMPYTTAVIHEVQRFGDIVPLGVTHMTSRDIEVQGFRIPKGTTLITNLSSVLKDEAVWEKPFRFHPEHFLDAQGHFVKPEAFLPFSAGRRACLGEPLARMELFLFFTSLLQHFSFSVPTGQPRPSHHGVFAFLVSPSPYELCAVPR
Chain of CYP3A4 (P08684 whole entry, canonical isoform): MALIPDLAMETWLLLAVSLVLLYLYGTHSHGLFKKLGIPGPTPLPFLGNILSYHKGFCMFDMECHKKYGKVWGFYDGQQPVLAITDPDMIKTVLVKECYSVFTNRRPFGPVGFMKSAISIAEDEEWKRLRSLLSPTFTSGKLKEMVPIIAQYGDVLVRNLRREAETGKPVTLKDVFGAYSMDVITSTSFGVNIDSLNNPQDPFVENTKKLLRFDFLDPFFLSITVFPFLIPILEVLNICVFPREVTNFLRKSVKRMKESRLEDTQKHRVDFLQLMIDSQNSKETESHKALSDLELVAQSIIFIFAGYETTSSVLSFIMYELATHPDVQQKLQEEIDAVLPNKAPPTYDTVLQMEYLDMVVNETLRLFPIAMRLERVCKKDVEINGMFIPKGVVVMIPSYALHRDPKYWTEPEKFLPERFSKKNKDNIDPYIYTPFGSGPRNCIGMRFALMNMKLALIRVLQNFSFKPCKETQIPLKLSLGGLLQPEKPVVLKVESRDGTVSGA
Chain of CYP2C9 (P11712 whole entry, canonical isoform): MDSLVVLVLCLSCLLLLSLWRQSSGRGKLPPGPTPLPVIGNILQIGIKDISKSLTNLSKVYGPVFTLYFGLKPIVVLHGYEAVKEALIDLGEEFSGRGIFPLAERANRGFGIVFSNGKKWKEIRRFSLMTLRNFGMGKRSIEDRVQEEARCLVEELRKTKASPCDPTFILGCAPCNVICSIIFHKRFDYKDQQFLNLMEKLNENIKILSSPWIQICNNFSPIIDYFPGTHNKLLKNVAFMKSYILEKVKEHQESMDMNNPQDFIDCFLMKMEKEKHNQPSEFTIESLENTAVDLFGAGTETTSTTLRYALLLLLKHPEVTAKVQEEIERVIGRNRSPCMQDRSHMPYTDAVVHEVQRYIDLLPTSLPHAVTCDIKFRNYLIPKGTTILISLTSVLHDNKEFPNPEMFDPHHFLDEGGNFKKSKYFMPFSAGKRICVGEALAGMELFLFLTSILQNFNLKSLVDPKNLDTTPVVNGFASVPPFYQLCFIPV
Chain of CYP2C19 (P33261 whole entry, canonical isoform): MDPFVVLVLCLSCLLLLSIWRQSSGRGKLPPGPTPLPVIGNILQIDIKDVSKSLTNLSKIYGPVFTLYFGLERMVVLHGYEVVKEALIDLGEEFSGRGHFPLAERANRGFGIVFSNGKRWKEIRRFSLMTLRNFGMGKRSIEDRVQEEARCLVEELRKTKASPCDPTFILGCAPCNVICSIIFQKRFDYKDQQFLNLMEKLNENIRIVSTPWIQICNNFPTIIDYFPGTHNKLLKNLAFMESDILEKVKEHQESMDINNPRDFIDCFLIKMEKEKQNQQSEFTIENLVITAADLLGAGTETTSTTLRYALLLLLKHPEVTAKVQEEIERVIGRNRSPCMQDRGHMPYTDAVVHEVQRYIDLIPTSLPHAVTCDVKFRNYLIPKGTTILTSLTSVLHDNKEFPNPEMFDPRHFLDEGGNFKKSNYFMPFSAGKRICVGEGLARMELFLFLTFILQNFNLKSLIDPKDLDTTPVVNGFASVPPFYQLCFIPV

With `Nc1nnc(-c2cnccc2N)s1` [III] the “EC50 T. b. brucei (compounds I-IV)” value ([1]; Table S1) was “not detectable”, the inhibition at 50 µM [2] was 15% and the Ki [2] was 53 µM. It also gave an IC50 [3] of over 50 µM.
Compound `Nc1nnc(NCc2cccs2)s1` [4c] has an inhibition at 50 µM [4] of 50.6 ± 2.6%, an IC50 [4] of 112 µM and an inhibition at 50 µM [1] of under 0%. The “antiparasitic effect as single agent” value ([5]; compound alone, 4m at 50 μM) was “low T. brucei cell inhibitory activity”, the inhibition at 10 µM [6] was 87.3 ± 5.7% and the inhibition at 10 µM [7] was -3.2 ± 2.9%. For the same compound, the inhibition at 10 µM [8] was -13.9 ± 18%, the inhibition at 10 µM [9] was -7.7 ± 4.7% and the inhibition at 10 µM [10] was 27.4 ± 5.7%. For the same compound, the inhibition at 10 µM [11] was -2.6 ± 4.5%, the inhibition at 10 µM [12] was 4.8 ± 2.9% and the viability at 10 µM [13] was 142 ± 13.8%. It also gave a viability at 10 µM [14] of 96.3 ± 7.6%.
In the case of `Nc1nnc(-c2ccc3[nH]nnc3c2)s1` [IV], the “% Antiparasitic Activity Tb brucei at 50uM” value [1] is reported as 67%, the EC50 ([1]; Table S1, read-out: EC50 T. b. brucei (compounds I-IV)) is reported as 170 µM and the inhibition at 50 µM [2] is reported as 10%. The Ki [2] was 88 µM and the IC50 [3] was 51.5 µM.
Compound `N=C(N)c1ccc(OCCCCCOc2ccc(C(=N)N)cc2)cc1` [Pentamidine, reference compound] has an EC50 ([1]; read-out: EC50 T. b. brucei (reference compound, SYBR Green assay)) of 0.0038 ± 0.00048 µM and an EC50 ([5]; read-out: average EC50 T. brucei (reference drug, resazurin assay)) of 0.00228 ± 0.00118 µM.
In the case of `Nc1nnc(CCCl)s1` [I], the “% Antiparasitic Activity Tb brucei at 50uM” value [1] is reported as 90% and the IC50 [3] is reported as 4.2 ± 0.4 µM.
In the case of `CN(Cc1cnc2nc(N)nc(N)c2n1)c1ccc(C(=O)N[C@@H](CCC(=O)O)C(=O)O)cc1` [MTX, methotrexate, reference compound], the “effect of 1 mM folic acid on T. b. brucei growth inhibition” value ([5]; 1 mM folic acid, MTX alone or equimolar 4m + MTX) is listed as “reduce the antiparasitic activity”, the EC50 ([5]; media supplemented with 9 μM folic acid, read-out: EC50 T. brucei, single agent) is listed as 35 ± 3 µM and the EC50 [15] is listed as 0.012 µM.
`Nc1nnc(CCC(=O)c2cccs2)s1` [3k] showed an inhibition at 50 µM [4] of 26 ± 0.7%, an IC50 [4] of over 70 µM and an inhibition at 50 µM [1] of 60.7%. The inhibition at 50 µM [2] was 18%, the Ki [2] was 48 µM and the IC50 [3] was over 50 µM. It also gave an inhibition at 10 µM [6] of 0.1 ± 6.4%, an inhibition at 10 µM [7] of 4.9 ± 1.4% and an inhibition at 10 µM [8] of -3.4 ± 15.5%. It also gave an inhibition at 10 µM [9] of -10.5 ± 2.1%, an inhibition at 10 µM [10] of -20.6 ± 3.1% and an inhibition at 10 µM [11] of 10.3 ± 7.8%. The inhibition at 10 µM [12] was -5.2 ± 3.9%, the viability at 10 µM [13] was 131 ± 2.8% and the viability at 10 µM [14] was 92 ± 9.7%.
